Measurements from article PMC7583961, “Development and Validation of an LC-MS/MS Assay to Quantitate 2′,4′,6′-Trihydroxyacetophenone in Rat and Dog Plasma and its Application to a Pharmacokinetic Study” (Molecules, 2020).

Legend:
[1] = Pharmacokinetic study of orally administered THAP in rats (LC-MS/MS of plasma, noncompartmental analysis); assay type: in vivo, Sprague Dawley rats; settings: for AUC(0-t) / Cmax / Tmax / half-life: plasma, rat, mean ± SD, n = 5
Protocol: (§1) Healthy Sprague Dawley rats (n = 15, mean ± SD weight 261.4 ± 6.8 g) and beagle dogs (n = 10, mean ± SD weight 9.85 ± 0.60 kg) were purchased from Orient Bio Inc. (Seongnam, Korea). The animals were kept in a light-controlled room at 22 ± 2 °C with relative humidity of 55 ± 5% in the Animal Center of Korea Preclinical Center (Gyeonggi-do, Korea). The pharmacokinetic study protocols (KPC-E2019099 for rats and KPC-M2019046 for dogs) were approved by the Animal Care and Use Committee of the Korea Preclinical Center (Gyeonggi-do, Korea).
(§2) Chromatographic separation was performed using an Agilent 1200 Series HPLC (Agilent Technologies, Inc., Palo Alto, CA, USA) system with a Gemini C18 column (50 × 2.0 mm, 3 µm, Phenomenex, Torrance, CA, USA) protected by a guard column at 40 °C. The mobile phase composed of 10 mM ammonium formate in water and methanol (10:90, v/v) was isocratically pumped into the HPLC system at a flow rate of 0.2 mL/min with a total run time of 2.5 min. The column was eluted into an API 4000 triple quadrupole mass spectrometer (Applied Biosystems, Framingham, Massachusetts, USA), operating in the multiple reaction monitoring (MRM) mode with a negative ion electrospray source. The optimized instrument settings were as follows: curtain gas flow of 20 L/h; collision gas flow of 6 L/h; ion source gas 1 pressure of 50 psi; ion source gas 2 pressure of 60 psi; ion spray voltage of −4500 V; and temperature of 500 °C. The precursor ions of THAP and IS were generated using declustering potentials of −100 and −75 V, respectively, and they were fragmented at a collision energy of −28 and −24 eV, respectively. The molecular mass transitions from precursor to product ion were optimized at m/z 166.89 > 82.8 for THAP and at 152.89 > 82.8 for IS. Data were processed using Analyst® program (Ver. 1.6.2, AB SCIEX, Toronto, ON, Canada).
(§3) Plasma samples were stored in a deep freezer at −70 °C and thawed at room temperature. An aliquot of each plasma sample (10 μL) was transferred to 1.75 mL microtubes (Axygen Scientific, Inc., California, USA). In each microtube, 20 μL of IS (2 μg/mL) and 500 μL of 100% cold acetonitrile were added and then vortexed for 10 min. After centrifugation at 20,800× g for 15 min, 50 μL of the supernatant was pipetted into a 2.0 mL microtube and diluted with 350 μL of 50% acetonitrile (v/v). After being vortexed for 10 min and centrifuged at 20,800× g at 4 °C for 10 min, a 2 μL aliquot was injected into the LC-MS/MS system for quantitation.
(§4) Male rats orally received a single dose of THAP (250, 500, or 750 mg/kg) dissolved in deionized water containing 2% CMC by gavages. Serial blood samples (0.22 mL each) were collected via the right jugular vein immediately before (0 h) and at 0.5, 1, 2, 3, 4, 6, 9, 12, 24, and 48 h (n = 5 per each sample time) post-dosing. Male dogs received a single oral dose of THAP tablet (500 mg) as either an immediate-release tablet (Group 1) or a sustained-release tablet (Group 2) (Table 5). Blood samples (1.0 mL) were drawn from a median vein of a forelimb at the following time points after the administration of THAP: 0.5, 1, 1.5, 2, 3, 4, 6, 8, 12, and 24 h (n = 5 per each sample time). After sampling blood from the animals, the cannula was flushed with an equal volume of heparinized saline solution (50 U/mL) to prevent coagulation and to replace the blood loss. Heparin was used as an anticoagulant throughout the study procedure. Plasma was harvested by centrifugation at 4 °C, 1700× g for 10 min and then stored at −70 °C before quantification. Noncompartmental analysis was performed to calculate the AUClast and T1/2 of THAP using WinNonlin version 8.1 (Pharsight Corporation, Mountain View, CA). The Cmax and Tmax of THAP were determined based on the individual plasma THAP concentration–time profiles.

[2] = Pharmacokinetic study of oral THAP IR or SR tablets in dogs (LC-MS/MS of plasma, noncompartmental analysis); assay type: in vivo; settings: male, beagle; for AUC(0-t) / Cmax / Tmax / half-life: dog, plasma, po, 500 mg, mean ± SD, n = 5
Protocol: as §1, §2, §3, §4

[3] = Stability of THAP in rat plasma; assay type: in vitro ADME; settings: for Plasma Stability (Mean %) Long-Term (−70 °C): 56 days; for Plasma Stability (Mean %) Long-Term (−70 °C) / Plasma Stability (Mean %) 4 °C (7 h) / Plasma Stability (Mean %) Autosampler (44 h, 10 °C) / Plasma Stability (Mean %) Freeze-Thaw Stability (5 Cycles) / Plasma Stability (Mean %) Room Temperature (7 h) / Plasma Stability (Mean %) −70 °C (7 h): n = 3
Protocol: (§5) The stability of THAP in rat and dog plasma was examined under the following conditions at concentrations of 0.3, 25, and 80 µg/mL (n = 3): freeze-thaw stability after five freeze-thaw cycles at −70 °C; short-term stability at room temperature, 4 °C, and −70 °C for 7 h; autosampler stability at 10 °C for 44 h; and long-term stability at −70 °C for 56 days and 32 days in rat and dog plasma, respectively. The stability of the stock solution at low (0.3 µg/mL) and high (80 µg/mL) QC concentrations (n = 3) stored at room temperature for 7 h was also tested by comparing their peak areas to those of freshly prepared stock solutions.

[4] = Stability of THAP in dog plasma; assay type: in vitro ADME; settings: for Plasma Stability (Mean %) Long-Term (−70 °C): 32 days; for Plasma Stability (Mean %) Long-Term (−70 °C) / Plasma Stability (Mean %) 4 °C (7 h) / Plasma Stability (Mean %) Autosampler (44 h, 10 °C) / Plasma Stability (Mean %) Freeze-Thaw Stability (5 Cycles) / Plasma Stability (Mean %) Room Temperature (7 h) / Plasma Stability (Mean %) −70 °C (7 h): n = 3
Protocol: as §5

[5] = Stability of THAP stock solution at room temperature; assay type: physicochemical; settings: room temperature 7 h, n = 3
Protocol: as §5

[6] = male, Sprague Dawley, oral 250 mg/kg aqueous solution (Group 1)
[7] = male, Sprague Dawley, oral 500 mg/kg aqueous solution (Group 2)
[8] = male, Sprague Dawley, oral 750 mg/kg aqueous solution (Group 3)
[9] = oral 500 mg THAP immediate-release tablet (Group 1)
[10] = oral 500 mg THAP sustained-release tablet (Group 2)
[11] = range over 0.3, 25 and 80 µg/mL

CC(=O)c1c(O)cc(O)cc1O [THAP, 2′,4′,6′-trihydroxyacetophenone]
AUC(0-t) [1, 6]: 80.9 ± 11.8 µg·h/mL
Cmax [1, 6]: 64200 ± 16300 ng/mL
Tmax [1, 6]: 0.5 h
half-life [1, 6]: 11.3 ± 0.9 h
AUC(0-t) [1, 7]: 150 ± 35.8 µg·h/mL
Cmax [1, 7]: 81300 ± 32300 ng/mL
Tmax [1, 7]: 0.5 h
half-life [1, 7]: 8.3 ± 1.2 h
AUC(0-t) [1, 8]: 302 ± 113 µg·h/mL
Cmax [1, 8]: 147000 ± 44600 ng/mL
Tmax [1, 8]: 0.5 h
half-life [1, 8]: 8 ± 1.5 h
concentration at 12 h ([1]; male, Sprague Dawley, rat plasma sample of R06, 12 h after oral administration of THAP 500 mg/kg, read-out: measured plasma concentration of THAP): 374 ng/mL
plasma THAP concentrations close to the peak concentration ([1]; rats, THAP dose of 500 mg/kg and 750 mg/kg, above ULOQ): greater than 100 µg/mL
AUC(0-t) [2, 9]: 89.9 ± 32.8 µg·h/mL
Cmax [2, 9]: 24500 ± 5000 ng/mL
Tmax [2, 9]: 1 ± 1.1 h
half-life [2, 9]: 6.1 ± 4.6 h
AUC(0-t) [2, 10]: 130 ± 49.4 µg·h/mL
Cmax [2, 10]: 18800 ± 8500 ng/mL
Tmax [2, 10]: 6 ± 1.6 h
half-life [2, 10]: 6.4 ± 1.6 h
concentration at 24 h ([2]; dog plasma sample of R05, 24 h after oral administration of THAP 500 mg immediate-release tablet, read-out: measured plasma concentration of THAP): 302 ng/mL
Plasma Stability (Mean %) Long-Term (−70 °C) ([3]; nominal 0.3 µg/mL): 111.67%
Plasma Stability (Mean %) 4 °C (7 h) ([3]; nominal 0.3 µg/mL): 99.22%
Plasma Stability (Mean %) Autosampler (44 h, 10 °C) ([3]; nominal 0.3 µg/mL): 105.00%
Plasma Stability (Mean %) Freeze-Thaw Stability (5 Cycles) ([3]; nominal 0.3 µg/mL): 101.00%
Plasma Stability (Mean %) Room Temperature (7 h) ([3]; nominal 0.3 µg/mL): 98.22%
Plasma Stability (Mean %) −70 °C (7 h) ([3]; nominal 0.3 µg/mL): 98.11%
Plasma Stability (Mean %) Long-Term (−70 °C) ([3]; nominal 25 µg/mL): 104.15%
Plasma Stability (Mean %) 4 °C (7 h) ([3]; nominal 25 µg/mL): 106.91%
Plasma Stability (Mean %) Autosampler (44 h, 10 °C) ([3]; nominal 25 µg/mL): 104.80%
Plasma Stability (Mean %) Freeze-Thaw Stability (5 Cycles) ([3]; nominal 25 µg/mL): 102.84%
Plasma Stability (Mean %) Room Temperature (7 h) ([3]; nominal 25 µg/mL): 101.62%
Plasma Stability (Mean %) −70 °C (7 h) ([3]; nominal 25 µg/mL): 109.87%
Plasma Stability (Mean %) Long-Term (−70 °C) ([3]; nominal 80 µg/mL): 99.39%
Plasma Stability (Mean %) 4 °C (7 h) ([3]; nominal 80 µg/mL): 100.98%
Plasma Stability (Mean %) Autosampler (44 h, 10 °C) ([3]; nominal 80 µg/mL): 100.58%
Plasma Stability (Mean %) Freeze-Thaw Stability (5 Cycles) ([3]; nominal 80 µg/mL): 99.62%
Plasma Stability (Mean %) Room Temperature (7 h) ([3]; nominal 80 µg/mL): 100.47%
Plasma Stability (Mean %) −70 °C (7 h) ([3]; nominal 80 µg/mL): 101.61%
long-term stability at −70 °C for 56 days [3, 11]: 99.39–111.67%
stability in the autosampler at 10 °C for 44 h [3, 11]: 100.58–105.00%
stability over five freeze-thaw cycles [3, 11]: 99.62–102.84%
Plasma Stability (Mean %) Long-Term (−70 °C) ([4]; nominal 0.3 µg/mL): 102.89%
Plasma Stability (Mean %) 4 °C (7 h) ([4]; nominal 0.3 µg/mL): 111.89%
Plasma Stability (Mean %) Autosampler (44 h, 10 °C) ([4]; nominal 0.3 µg/mL): 99.67%
Plasma Stability (Mean %) Freeze-Thaw Stability (5 Cycles) ([4]; nominal 0.3 µg/mL): 101.33%
Plasma Stability (Mean %) Room Temperature (7 h) ([4]; nominal 0.3 µg/mL): 109.89%
Plasma Stability (Mean %) −70 °C (7 h) ([4]; nominal 0.3 µg/mL): 109.56%
Plasma Stability (Mean %) Long-Term (−70 °C) ([4]; nominal 25 µg/mL): 103.95%
Plasma Stability (Mean %) 4 °C (7 h) ([4]; nominal 25 µg/mL): 105.57%
Plasma Stability (Mean %) Autosampler (44 h, 10 °C) ([4]; nominal 25 µg/mL): 106.75%
Plasma Stability (Mean %) Freeze-Thaw Stability (5 Cycles) ([4]; nominal 25 µg/mL): 105.31%
Plasma Stability (Mean %) Room Temperature (7 h) ([4]; nominal 25 µg/mL): 106.66%
Plasma Stability (Mean %) −70 °C (7 h) ([4]; nominal 25 µg/mL): 105.88%
Plasma Stability (Mean %) Long-Term (−70 °C) ([4]; nominal 80 µg/mL): 99.45%
Plasma Stability (Mean %) 4 °C (7 h) ([4]; nominal 80 µg/mL): 98.87%
Plasma Stability (Mean %) Autosampler (44 h, 10 °C) ([4]; nominal 80 µg/mL): 97.58%
Plasma Stability (Mean %) Freeze-Thaw Stability (5 Cycles) ([4]; nominal 80 µg/mL): 98.41%
Plasma Stability (Mean %) Room Temperature (7 h) ([4]; nominal 80 µg/mL): 98.17%
Plasma Stability (Mean %) −70 °C (7 h) ([4]; nominal 80 µg/mL): 97.32%
long-term stability at −70 °C for 32 days [4, 11]: 99.45–103.95%
stability in the autosampler at 10 °C for 44 h [4, 11]: 97.58–106.75%
stability over five freeze-thaw cycles [4, 11]: 98.41–105.31%
mean percentage peak area of stock solution vs freshly prepared stock solution ([5]; 0.3 µg/mL): 102.15%
mean percentage peak area of stock solution vs freshly prepared stock solution ([5]; 80 µg/mL): 100.92%
